One test concerns Phytophthora infestans. Description: whole plant or invertebrate. The test is classed as in vivo. As to conditions: 250 ppm drug solution sprayed on test plant.
The subject of the next test is Puccinia recondita. Description: Test Example E: Brown rust on wheat. The conditions noted are these: 250 ppm drug solution sprayed on test plant. In kind it is in vivo.
In the next test the test system is Magnaporthe grisea. The experiment in a line: whole plant or invertebrate. In kind it is in vivo. As to conditions: 250 ppm drug solution sprayed on test plant.
The subject of test [1] is Colletotrichum orbiculare. Description: Test Example H: Anthracnose on cucumber. As to conditions: 250 ppm drug solution sprayed (2.5 ml/pot), cucumber Sagami Hanjiro, 6 to 10 days after inoculation.
The subject of a further test is Alternaia brassicicola. The experiment in a line: Test Example C: Alternaria sooty spot on cabbage. The test is classed as in vivo. As to conditions: 250 ppm drug solution sprayed on test plant. The text has this: Seeds of a test plant (cabbage variety: Shikidori) were planted and cultivated until the cotyledons extended.
<Control Value> Control value=100{1−(n/3)}

Another test has as its system Botrytis cinerea. Description: Test Example B: Gray mold on tomato. As to conditions: 250 ppm drug solution sprayed on test plant.
The subject of test [2] is Blumeria graminis f. sp. hordei. Description: Test Example D: Powdery mildew on barley. The conditions noted are these: 250 ppm drug solution sprayed on test plant.
For a further test, the system named is Plasmopara viticola. Description: Test Example G: Downy mildew on vine. As to conditions: 250 ppm drug solution sprayed (2.5 ml/pot), grape Neomuscat, 7 to 10 days after inoculation.

`CCn1c(-c2c(F)cc(F)cc2F)c(CO)ccc1=O` [compound 478]: the “Test F control value” in the test with Phytophthora infestans is recorded as “L (50% or less control value)”. For the same compound, in the test on Puccinia recondita, the “Test E control value” is “L (50% or less control value)”. In the test with Magnaporthe grisea, the “Test A control value” is “L (50% or less control value)”. Besides, the “Test H control value” in test [1] is reported as “L (50% or less control value)”. For the same compound, the “Test C control value” in the test on Alternaia brassicicola is “L (50% or less control value)”. In the test on Botrytis cinerea, the “Test B control value” is “L (50% or less control value)”. Moreover, in test [2], the “Test D control value” is given as “H (more than 50% control value)”. Besides, the “Test G control value” with Plasmopara viticola is “L (50% or less control value)”.

On to `CCn1c(-c2c(F)cc(F)cc2F)c(C(C)(OC)C(C)C)ccc1=O` (stereo not shown) [compound 479], for which, in the test with Phytophthora infestans, the “Test F control value” is “L (50% or less control value)”. Besides, the “Test E control value” in the test with Puccinia recondita is given as “H (more than 50% control value)”. Besides, the “Test A control value” with Magnaporthe grisea is listed as “H (more than 50% control value)”. The “Test H control value” in test [1] is on record as “H (more than 50% control value)”. Further, the “Test C control value” in the test with Alternaia brassicicola is recorded as “H (more than 50% control value)”. Moreover, in the test on Botrytis cinerea, the “Test B control value” is given as “H (more than 50% control value)”. In addition, the “Test D control value” in test [2] is given as “H (more than 50% control value)”. Besides, the “Test G control value” in the test on Plasmopara viticola was “H (more than 50% control value)”.

For the compound `CCC(=O)c1ccc(=O)n(CC)c1-c1c(F)cc(F)cc1F` [compound 480], the “Test F control value” in the test on Phytophthora infestans was “L (50% or less control value)”. The “Test E control value” in the test with Puccinia recondita is “L (50% or less control value)”. Besides, the “Test A control value” in the test with Magnaporthe grisea is recorded as “L (50% or less control value)”. For the same compound, the “Test H control value” in test [1] is “H (more than 50% control value)”. In the test with Alternaia brassicicola, the “Test C control value” was “L (50% or less control value)”. Also, the “Test B control value” in the test with Botrytis cinerea is “H (more than 50% control value)”. Moreover, the “Test D control value” in test [2] is recorded as “H (more than 50% control value)”. For the same compound, the “Test G control value” with Plasmopara viticola was “L (50% or less control value)”.

Consider `CCn1c(-c2c(F)cc(F)cc2F)c(C(C)(O)CC)ccc1=O` (stereo not shown) [compound 481], for which, in the test on Phytophthora infestans, the “Test F control value” was “L (50% or less control value)”. In the test on Puccinia recondita, the “Test E control value” is “H (more than 50% control value)”. Moreover, in the test with Magnaporthe grisea, the “Test A control value” was “L (50% or less control value)”. The “Test H control value” in test [1] is recorded as “H (more than 50% control value)”. In the test with Alternaia brassicicola, the “Test C control value” is reported as “L (50% or less control value)”. For the same compound, the “Test B control value” with Botrytis cinerea is “H (more than 50% control value)”. In addition, the “Test D control value” in test [2] was “H (more than 50% control value)”. Further, the “Test G control value” in the test on Plasmopara viticola is on record as “L (50% or less control value)”.

Turning to `CCn1c(-c2c(F)cc(F)cc2F)c(C(C)(O)CC)cc(Br)c1=O` (stereo not shown) [compound 482], the “Test F control value” in the test on Phytophthora infestans was “L (50% or less control value)”. In addition, in the test with Puccinia recondita, the “Test E control value” is reported as “H (more than 50% control value)”. Besides, the “Test A control value” in the test with Magnaporthe grisea is “H (more than 50% control value)”. The “Test H control value” in test [1] was “H (more than 50% control value)”. In the test on Alternaia brassicicola, the “Test C control value” is on record as “H (more than 50% control value)”. The “Test B control value” with Botrytis cinerea is listed as “H (more than 50% control value)”. The “Test D control value” in test [2] is listed as “H (more than 50% control value)”. Also, in the test with Plasmopara viticola, the “Test G control value” is listed as “H (more than 50% control value)”.

In the case of `CCn1c(-c2c(F)cc(F)cc2F)c(C(C)(CC)OC)cc(Br)c1=O` (stereo not shown) [compound 483], the “Test F control value” in the test with Phytophthora infestans is listed as “L (50% or less control value)”. For the same compound, the “Test E control value” in the test with Puccinia recondita is reported as “H (more than 50% control value)”. Further, the “Test A control value” with Magnaporthe grisea is reported as “H (more than 50% control value)”. The “Test H control value” in test [1] is “H (more than 50% control value)”. Also, the “Test C control value” in the test on Alternaia brassicicola is recorded as “H (more than 50% control value)”. Also, in the test with Botrytis cinerea, the “Test B control value” was “H (more than 50% control value)”. In addition, the “Test D control value” in test [2] was “H (more than 50% control value)”. In the test with Plasmopara viticola, the “Test G control value” is “H (more than 50% control value)”.

Regarding `CCOC(C)(CC)c1cc(Br)c(=O)n(CC)c1-c1c(F)cc(F)cc1F` (stereo not shown) [compound 484], the “Test F control value” in the test with Phytophthora infestans is given as “L (50% or less control value)”. Further, the “Test E control value” in the test on Puccinia recondita is recorded as “H (more than 50% control value)”. Moreover, the “Test A control value” in the test on Magnaporthe grisea is “H (more than 50% control value)”. Moreover, the “Test H control value” in test [1] is “H (more than 50% control value)”. The “Test C control value” with Alternaia brassicicola is given as “L (50% or less control value)”. Further, the “Test B control value” in the test with Botrytis cinerea is recorded as “H (more than 50% control value)”. For the same compound, the “Test D control value” in test [2] is on record as “H (more than 50% control value)”. Besides, the “Test G control value” in the test on Plasmopara viticola is listed as “H (more than 50% control value)”.

Consider `CCOC(C)(CC)c1cc(Br)c(=O)n(CC)c1-c1c(F)cc(OC)cc1F` (stereo not shown) [compound 485], for which, in the test on Phytophthora infestans, the “Test F control value” is recorded as “L (50% or less control value)”. The “Test E control value” in the test on Puccinia recondita was “H (more than 50% control value)”. Moreover, in the test with Magnaporthe grisea, the “Test A control value” is “H (more than 50% control value)”. Moreover, the “Test H control value” in test [1] was “H (more than 50% control value)”. Also, the “Test C control value” in the test with Alternaia brassicicola is “H (more than 50% control value)”. Further, the “Test B control value” in the test with Botrytis cinerea was “H (more than 50% control value)”. Moreover, the “Test D control value” in test [2] was “L (50% or less control value)”. In addition, the “Test G control value” in the test on Plasmopara viticola is on record as “L (50% or less control value)”.

For the compound `CCn1c(-c2c(F)cc(OC)cc2F)c(C(C)(CC)OC)cc(Br)c1=O` (stereo not shown) [compound 486], in the test on Phytophthora infestans, the “Test F control value” is on record as “L (50% or less control value)”. Moreover, the “Test E control value” in the test with Puccinia recondita was “H (more than 50% control value)”. In addition, the “Test A control value” in the test on Magnaporthe grisea was “H (more than 50% control value)”. For the same compound, the “Test H control value” in test [1] is on record as “H (more than 50% control value)”. Further, the “Test C control value” in the test on Alternaia brassicicola is “H (more than 50% control value)”. Besides, the “Test B control value” in the test on Botrytis cinerea is “H (more than 50% control value)”. Further, the “Test D control value” in test [2] was “H (more than 50% control value)”. Moreover, in the test on Plasmopara viticola, the “Test G control value” is recorded as “L (50% or less control value)”.

Turning to `COc1cc(F)c(-c2c(C(C)(O)C(C)C)cc(Cl)c(=O)n2C)c(F)c1` (stereo not shown) [compound 487], in the test with Phytophthora infestans, the “Test F control value” is recorded as “H (more than 50% control value)”. Also, the “Test E control value” in the test with Puccinia recondita is recorded as “H (more than 50% control value)”. Moreover, the “Test A control value” in the test on Magnaporthe grisea is listed as “H (more than 50% control value)”. In addition, the “Test H control value” in test [1] is “H (more than 50% control value)”. Besides, the “Test C control value” in the test with Alternaia brassicicola was “H (more than 50% control value)”. The “Test B control value” in the test on Botrytis cinerea is listed as “H (more than 50% control value)”. For the same compound, the “Test D control value” in test [2] is “H (more than 50% control value)”. The “Test G control value” in the test on Plasmopara viticola is recorded as “H (more than 50% control value)”.

Take `COc1cc(F)c(-c2c(C(C)(OC)C(C)C)cc(Cl)c(=O)n2C)c(F)c1` (stereo not shown) [compound 488]: in the test with Phytophthora infestans, the “Test F control value” is given as “L (50% or less control value)”. For the same compound, the “Test E control value” with Puccinia recondita is on record as “H (more than 50% control value)”. In the test on Magnaporthe grisea, the “Test A control value” is “H (more than 50% control value)”. Moreover, in test [1], the “Test H control value” is given as “H (more than 50% control value)”. In the test with Alternaia brassicicola, the “Test C control value” is “H (more than 50% control value)”. Moreover, the “Test B control value” in the test with Botrytis cinerea is recorded as “H (more than 50% control value)”. Besides, in test [2], the “Test D control value” is given as “L (50% or less control value)”. Moreover, the “Test G control value” in the test on Plasmopara viticola is recorded as “L (50% or less control value)”.
